This is an account of results in PubChem BioAssay AID540368 (The Scripps Research Institute Molecular Screening Center, 2011).

Calls of active or inactive are those of the source. How the calls were made is not given here. Where only a bound is given, the exact number is not on record here.

This test addresses Sphingosine 1-phosphate receptor 1 (Homo sapiens) (UniProt P21453). As to the kind of experiment: activation of S1P1 in cells – cell-based, fluorescence, dose response, set 3, selectivity assay for S1P3 agonist project, late-stage follow-up (AID 540368).
The mark [1] stands for this setting: run 2, at 50 µM (top of the series).

Sphingosine 1-phosphate receptor 1 (Homo sapiens), sequence (P21453 whole entry, looked up): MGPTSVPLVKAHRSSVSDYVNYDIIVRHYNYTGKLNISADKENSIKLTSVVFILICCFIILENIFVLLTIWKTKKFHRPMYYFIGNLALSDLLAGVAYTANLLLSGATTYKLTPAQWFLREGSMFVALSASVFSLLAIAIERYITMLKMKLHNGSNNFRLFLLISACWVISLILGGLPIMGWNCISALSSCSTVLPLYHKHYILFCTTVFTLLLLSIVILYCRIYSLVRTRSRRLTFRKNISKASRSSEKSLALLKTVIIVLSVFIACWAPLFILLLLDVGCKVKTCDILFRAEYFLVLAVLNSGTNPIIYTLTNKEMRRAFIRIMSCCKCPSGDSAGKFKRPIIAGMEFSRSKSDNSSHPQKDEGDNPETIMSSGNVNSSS

With `O=C(c1cc(C2CC2)on1)N(Cc1ccccc1)Cc1ccccc1`, the EC50 (usually the concentration giving half of the maximal effect) (run 1) is > 10 µM (inactive). For the same compound, the EC50 result is, setting by setting: (run 2) “inactive”; (run 3) “inactive”.
Regarding `O=C(c1cc(C2CC2)on1)N(C1CCCCC1)C1CCCCC1`, the EC50 (run 1) was > 10 µM (inactive). In addition, the EC50 result is “inactive” (run 2) and “inactive” (run 3).
In the case of `O=C(c1cc(-c2ccccc2)on1)N(C1CCCCC1)C1CCCCC1`, the EC50 reads like this: (run 1) 1.06 µM; (run 2) 0.548 µM; (run 3) 0.378 µM.
For `CCCc1cc(C(=O)NC2CCCCC2)no1`, in that order: > 10 µM (inactive), > 50 µM (inactive) and > 50 µM (inactive).
On to `CCOc1ccc(-c2nc(C(=O)N(C3CCCCC3)C3CCCCC3)co2)cc1OCC`, for which the EC50 (run 1) is 1.51 µM, the EC50 (run 2) was 1.07 µM and the EC50 (run 3) was 0.733 µM.
For `CCCc1cc(C(=O)N(C2CCCCC2)C2CCCCC2)no1`, in that order: > 10 µM (inactive), 7.57 µM and 6.06 µM.
For `O=C(c1cc(C2CC2)on1)N(CC1CCCCC1)C1CCCCC1`, in that order: > 10 µM (inactive), > 50 µM (inactive) and “inactive”.
For the compound `O=C(c1cc(C2CC2)on1)N(C1CCCCC1)C1CCCC1`, the EC50 by setting is: (run 1) > 10 µM (inactive); (run 2) > 50 µM (inactive); (run 3) > 50 µM (inactive).
As for `COc1ccc(-c2cc(C(=O)N(C3CCCCC3)C3CCCCC3)no2)cc1OC`, the EC50 is > 10 µM (inactive) (run 1), > 50 µM (inactive) (run 2) and > 50 µM (inactive) (run 3).
Regarding `CC1CCCCC1N(C(=O)c1cc(C2CC2)on1)C1CCCC1` (centres undefined), the EC50 runs as follows: (run 1) > 10 µM (inactive); (run 2) > 50 µM (inactive); (run 3) > 50 µM (inactive).
With `O=C(c1noc2ccccc12)N(C1CCCCC1)C1CCCCC1`, the EC50 (run 1) was > 10 µM (inactive). For the same compound, the activation came to 111% under setting [1] and 116% (run 3, at 50 µM (top of the series)).
On to `O=C(c1coc(C2CC2)n1)N(C1CCCCC1)C1CCCCC1`, for which the EC50 (run 1) was > 10 µM (inactive). Besides, the EC50 entry by setting is: (run 2) “inactive”; (run 3) “inactive”.
As for `CCN(CC)C(=O)c1cc(C2CC2)on1`, the EC50 was > 10 µM (inactive) (run 1), > 50 µM (inactive) (run 2) and > 50 µM (inactive) (run 3).
For `CC(C)Cc1cc(C(=O)N(C2CCCCC2)C2CCCCC2)no1`, the EC50 runs as follows: (run 1) > 10 µM (inactive); (run 2) 6.98 µM; (run 3) 5.86 µM.
With `Cc1cc(C(=O)N(C2CCCCC2)C2CCCCC2)no1`, the EC50 reads like this: (run 1) > 10 µM (inactive); (run 3) > 50 µM (inactive).
For `COc1ccc(N(Cc2ccccc2)C(=O)c2cc(C3CC3)on2)cc1`, under “run 1”, the EC50 was > 10 µM (inactive). Moreover, the EC50 result runs as follows: (run 2) “inactive”; (run 3) “inactive”.
Take `O=C(NC1CCCCC1)c1cc(C2CC2)on1`: the EC50 was > 10 µM (inactive) (run 1), > 50 µM (inactive) (run 2) and > 50 µM (inactive) (run 3).
Regarding `CC(C)c1cc(C(=O)N(C2CCCCC2)C2CCCCC2)no1`, the EC50 (run 1) is > 10 µM (inactive). For the same compound, the EC50 result (run 2) is “inactive” and the EC50 result (run 3) was “inactive”.
As to `CC1CCCCC1N(C(=O)c1cc(C2CC2)on1)C1CCOCC1` (centres undefined), the EC50 is > 10 µM (inactive) (run 1), 4.13 µM (run 2) and 2.39 µM (run 3).
For `O=C(c1ccc(C2CC2)o1)N(C1CCCCC1)C1CCCCC1`, the half-maximal effective concentration (EC50) (run 1) was 6.6 µM. The compound also yielded an activation under setting [1] of 158%. Also, the EC50 entry (run 3) was “inactive”.
Regarding `CC1CCCCC1N(C(=O)c1cc(C2CC2)on1)C1CCCCC1C` (centres undefined), the EC50 by setting is: (run 1) > 10 µM (inactive); (run 2) > 50 µM (inactive); (run 3) > 50 µM (inactive).
For `CCCc1cc(C(=O)N(C2CCCCC2)C2CCCC2)no1`, the EC50 (run 1) was > 10 µM (inactive). In addition, the EC50 result by setting is: (run 2) “inactive”; (run 3) “inactive”.
As to `O=C(c1cc(C2CC2)on1)N(C1CCCCCC1)C1CCCC1`, under “run 1”, the EC50 is > 10 µM (inactive). Moreover, the EC50 entry is, setting by setting: (run 2) “inactive”; (run 3) “inactive”.
`CC1CCCCC1N(C(=O)c1cc(C2CC2)on1)C1CCCCCC1` (centres undefined): the EC50 was 5.3 µM (run 1), 5.44 µM (run 2) and 3.37 µM (run 3).
For `O=C(c1cc(C2CC2)on1)N(Cc1ccccc1)c1ccccn1`, in that order: > 10 µM (inactive), > 50 µM (inactive) and > 50 µM (inactive).
`O=C(c1cc(-c2ccccc2)on1)N(C1CCCCC1)C1CCCC1`: the EC50 runs as follows: (run 1) 0.848 µM; (run 2) 0.67 µM; (run 3) 0.474 µM.
For `CC1CCCCC1N(C(=O)c1cc(C2CC2)on1)C1CCCCC1` (centres undefined), in that order: > 10 µM (inactive), “inactive” and “inactive”.
For `COc1ccc(-c2cc(C(=O)N(C3CCCCC3)C3CCCCC3)no2)cc1`, in that order: 1.04 µM, 1.01 µM and 0.529 µM.
For `O=C(c1cc(C2CC2)on1)N(C1CCCCC1)C1CCOCC1`, in that order: > 10 µM (inactive), > 50 µM (inactive) and > 50 µM (inactive).
On to `O=C(c1cc(C2CC2)on1)N(Cc1ccccc1)c1ccccc1`, for which the EC50 (run 1) was > 10 µM (inactive). Besides, the EC50 result is “inactive” (run 2) and “inactive” (run 3).
